Reference: patent US8853194B2, “Sterol derivatives and their synthesis and use” (priority 2009, dated 2014)
“And” between values parts separate entries of the source, which are not always exact repeats. Equal entries are not always repeated. Where two headings read alike, the source gives them in different places.

What was measured:
[1] = from LD50 and anti-tumor dose in mice
Source text: I. Experiment Item: the anti-tumor therapeutic index of CL168

Bcl-2 = conditions: tumor tissue, ratio to β-actin, n=3
mouse sarcoma cells S180 = system: mouse sarcoma cells S180
Protocol: Ascites mice S180 and H22 that had been vaccinated 7 days were sacrificed by cervical, from which ascites were obtained under sterile conditions respectively; the obtained ascites were washed twice with culture medium RPMI1640, and prepared to a 2×10^7/ml suspension in sterile physiological saline. The suspension of cell S180 was inoculated subcutaneously in the right axillas of 40 mice (0.1 ml/mouse) to produce solid tumor models; while the suspension of cell H22 was inoculated in abdominal cavities of 40 mice (0.2 ml/mouse) by conditional means under sterile conditions to produce ascites tumor models.
90 mice were randomly divided into 9 groups of 3 types, wherein the first type group was a normal control group, the second type groups were S180 solid tumor groups including a positive (cyclophosphamide) control group, a negative control group, a low dose group and a high dose group, and the third type groups were H22 ascites groups including a positive (cyclophosphamide) control group, a negative control group, a low dose group and a high dose group. There were 10 mice in each group. The experiment was repeated for three times.
[…], the negative control group was injected same volume of corn oil, and the positive control group was injected cyclophosphamide injection solution with the dose of 0.02 g/(Kg.d). The used injection volume was 0.1 ml/mouse and the injection was given as intraperitoneal injection every other day for 15 days. During the 15 days, general activities, fur, feces, etc. of the mice were daily observed. 24 hours after the last administration, mice that had been inoculated subcutaneously with S180 were sacrificed by cervical, from which tumors, thymus and spleen were taken out. After the last administration, mice that had been inoculated in abdominal cavities with H22 were conventionally bred continually, weighted and observed the survival time every day until all the mice in the negative group were dead.
After finishing the administration in all mice in the solid tumor group, the mice were sacrificed and their spleens and livers were weighed by electronic balance. The spleen index was equivalent to the spleen weight (mg) of mice in each group divided by the weight of the mice, while the liver index was equivalent to the liver weight […] divided by the weight (g) of the mice.
On the next day after drug withdrawal, the mice in the solid-tumor […] group were weighed and sacrificed by cervical, wherein the serum was collected by eye bleeding for later use in subsequent experiments. Tumor tissues were dissected and weighed by electronic balance. The tumor inhibition rate was calculated as follows. Tumor Inhibition Rate(%)=[(mean tumor weight of negative control group−mean tumor weight of treatment group)/mean tumor weight of control group]×100%

Caspase 8 = conditions: 2.0 μg, HepG2 cells
Protocol: (§1) 2.1.1 HepG2 cells were digested by trypsin in the cell culture medium. The resulting mixture (6000 was centrifuged for 5 minutes at 4° C. to collect the cells. The supernatant was carefully aspirated and discarded. The remains were washed once with PBS, added to lysate (100 μl/2×10^6 cells); and then, after resuspending the precipitation, ice cracked for 15 minutes.
(§2) 2.1.2 The resulting mixture (16000 g) was centrifuged at 4° C. for 15 minutes.
(§3) 2.1.3 The supernatant was transferred into a centrifugal tube that was pre-cooled by ice bath.
(§4) 2.2.3 Incubating at 37° C. for 120 minutes, detecting Caspase 3 with A405;
(§5) 2.2.4 Adding Ac-IETD-PNA (2 mM) and Ac-LEHD-PNA (2 mM), respectively, for detecting Caspase 8, 9

Caspase 9 = conditions: 2.0 μg, HepG2 cells
Protocol: as §1, §2, §3, §4, §5

P21 = conditions: tumor tissue, ratio to β-actin, n=3
Protocol: (§6) 3. Detecting the activity of tumor cells VEGF, P53, P21, Bcl-2 (taking β-Actin as an internal reference)
(§7) Using Protein Electrophoresis (Western Blot) Method
(§8) A bean sized tumor tissue dissected previously was shredded and put into a pre-cooled tissue grinder. 400 μl tissue lysis solution was added. After 10 minutes carefully grinding, the mixture was transferred into a 1.5 ml centrifugal tube, and then, after intensely vortexing the tube for 15 seconds, the mixture was placed on ice for 10 minutes and repeatedly oscillated. After centrifuging 20 minutes (12000 rpm), the supernatant was collected, transferred into a pre-cooled Eppendorf tube, and then separately charged and frozen stored at −80° C. for detecting the activity level of various antibodies.
(§9) 3.4.3 Reaction with the first antibody: The first antibody was diluted by TBST solution at a ratio of 1:200, and then reacted with the PVDF film at 4° C. for a night. In the next day, after balanced at room temperature for one hour, the reaction mixture was washed with TBST for 3 times.

VEGF = conditions: tumor tissue, ratio to β-actin, n=3
Protocol: as §6, §7, §8, §9

P53 = conditions: tumor tissue, ratio to β-actin, n=3
Protocol: as §6, §7, §8, §9

ICR mice = test: Intraperitoneal injection LD50 for mouse (KORBER's method); format: in vivo; conditions: for Animal deaths: 10 mice, in 7 days
Protocol: I. Experiment Item: Intraperitoneal injection LD50 for mouse (KORBER's method)
ICR mice (SPF grade), with a weight range of 18-22 g, provided by Vital River Laboratories (VRL) in Beijing, China, were used. There were 5 treatment groups in total, wherein 2000 mg/kg was the highest dose, and the others decreased to 0.8 times, i.e. 1600 mg/kg, 1280 mg/kg, 1024 mg/kg and 819.2 mg/kg. The mice were randomly divided into groups. Each group had 10 mice with half male and half female. Each mouse was introperitoneal injected (0.2 ml/10 g. Observed 3-7 days, a variety of animal responses and the amount of dead mice in each group were recorded. LD50 and confidence limits were calculated by the modified Karber method(Korbor) according to the mortality rate of animals in each group.

[2] = S180 sarcoma mice, low dose 16 mg/kg i.p. every other day for 15 days
[3] = mice, intraperitoneal injection, modified Karber method

**Q.** With `CC(C)CCC[C@@H](C)[C@H]1CC[C@@H]2[C@]1(C)CC[C@H]1[C@]23C=C[C@]2(CC(=O)CC[C@]12C)OO3` [CL168-6, 5α,8α-cyclicobioxygen-6-cholesten-3-one] as the molecule, how does the “anti-tumor therapeutic index (TI)” value [1] read?
**A.** 49.3

**Q.** And the “anti-tumor therapeutic index (TI)” value ([1]; listed as CL168)?
**A.** about 49.3

**Q.** And the “relative expression level of bcl-2” value (Bcl-2)?
**A.** 0.75±0.04

**Q.** And the “Tumor weight (g)” value (mouse sarcoma cells S180; S180 sarcoma mice, high dose 32 mg/kg i.p. every other day for 15 days)?
**A.** 0.629 ± 0.133^(3) g

**Q.** What about the “Tumor inhibition rate (%)” value (mouse sarcoma cells S180; S180 sarcoma mice, high dose 32 mg/kg i.p. every other day for 15 days, 32 mg/kg) of the same molecule?
**A.** 54.58%

**Q.** What about the “Tumor weight (g)” value (mouse sarcoma cells S180; [2]) of the same molecule?
**A.** 0.771 ± 0.407^ g

**Q.** What about the “Weight increase” value (mouse sarcoma cells S180; [2]) of the same molecule?
**A.** 6.71 ± 1.22 g

**Q.** What about the “Tumor inhibition rate (%)” value (mouse sarcoma cells S180; S180 sarcoma mice, low dose 16 mg/kg i.p. every other day for 15 days, 16 mg/kg) of the same molecule?
**A.** 44.33%

**Q.** What about the “Liver index (100 g/g)” value (mouse sarcoma cells S180; mouse, in vivo, ip, 16 mg/kg) of the same molecule?
**A.** 4.45 ± 0.19 100 g/g

**Q.** And the “Spleen index (mg/g)” value (mouse sarcoma cells S180; mouse, in vivo, ip, 16 mg/kg)?
**A.** 5.32 ± 0.68^(2)(4) mg/g

**Q.** What about the “Liver index (100 g/g)” value (mouse sarcoma cells S180; mouse, in vivo, ip, 32 mg/kg) of the same molecule?
**A.** 4.38 ± 0.13 100 g/g

**Q.** And the “Spleen index (mg/g)” value (mouse sarcoma cells S180; mouse, in vivo, ip, 32 mg/kg)?
**A.** 5.34 ± 0.73^(2)(4) mg/g

**Q.** What about the “Weight increase” value (mouse sarcoma cells S180; mouse, in vivo, ip, 32 mg/kg) of the same molecule?
**A.** 6.00 ± 1.11 g

**Q.** And the “OD value of Caspase8” value (Caspase 8; 24 h)?
**A.** 0.413

**Q.** What about the “OD value of Caspase8” value (Caspase 8; 48 h) of the same molecule?
**A.** 0.408

**Q.** And the “OD value of Caspase9” value (Caspase 9; 24 h)?
**A.** 0.156

**Q.** What about the “OD value of Caspase9” value (Caspase 9; 48 h) of the same molecule?
**A.** 0.146

**Q.** What about the “relative expression level of P21” value (P21) of the same molecule?
**A.** 0.79±0.07

**Q.** What about the “relative expression level of VEGF” value (VEGF) of the same molecule?
**A.** 0.46±0.08

**Q.** And the “relative expression level of P53” value (P53)?
**A.** 0.74±0.03

**Q.** What about the Animal deaths (ICR mice; 819.2 mg/kg i.p.) of the same molecule?
**A.** 0

**Q.** And the Animal deaths (ICR mice; 1024 mg/kg i.p.)?
**A.** 1

**Q.** And the Animal deaths (ICR mice; 1280 mg/kg i.p.)?
**A.** 3

**Q.** And the Animal deaths (ICR mice; 1600 mg/kg i.p.)?
**A.** 6

**Q.** And the Animal deaths (ICR mice; 2000 mg/kg i.p.)?
**A.** 8

**Q.** And the “Death in the 12 hours after administration” value (ICR mice; 819.2-2000 mg/kg i.p., first 12 hours)?
**A.** no death appeared

**Q.** And the LD50 (ICR mice; [3])?
**A.** 1479.11 mg/kg and 1479 mg/kg

**Q.** What about the “LD50 95% confidence interval” value (ICR mice; [3]) of the same molecule?
**A.** 1304.19 to 1677.49 mg/kg
